The results in this text go back to ChEMBL document CHEMBL5291721, “A preclinical secondary pharmacology resource illuminates target-adverse drug reaction associations of marketed drugs” (Nat Commun, 2023).

Test [1] has as its target T1, Muscarinic acetylcholine receptor M4 (Homo sapiens, UniProt P08173).
T1 sequence (P08173 whole entry): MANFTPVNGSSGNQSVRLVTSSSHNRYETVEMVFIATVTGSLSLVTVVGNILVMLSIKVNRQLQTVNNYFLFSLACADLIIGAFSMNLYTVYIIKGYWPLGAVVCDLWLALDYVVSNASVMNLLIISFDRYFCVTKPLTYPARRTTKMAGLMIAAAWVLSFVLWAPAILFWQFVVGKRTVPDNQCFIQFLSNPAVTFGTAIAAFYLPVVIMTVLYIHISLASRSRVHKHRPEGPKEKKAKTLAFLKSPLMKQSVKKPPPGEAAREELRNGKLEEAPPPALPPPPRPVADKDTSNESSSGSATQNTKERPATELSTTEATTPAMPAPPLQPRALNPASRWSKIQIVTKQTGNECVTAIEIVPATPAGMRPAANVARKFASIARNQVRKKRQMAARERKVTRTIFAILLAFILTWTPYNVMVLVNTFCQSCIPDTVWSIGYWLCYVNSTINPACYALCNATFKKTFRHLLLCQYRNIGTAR

A further test addresses T2, Substance-K receptor (Homo sapiens, UniProt P21452).
T2 sequence (P21452 whole entry): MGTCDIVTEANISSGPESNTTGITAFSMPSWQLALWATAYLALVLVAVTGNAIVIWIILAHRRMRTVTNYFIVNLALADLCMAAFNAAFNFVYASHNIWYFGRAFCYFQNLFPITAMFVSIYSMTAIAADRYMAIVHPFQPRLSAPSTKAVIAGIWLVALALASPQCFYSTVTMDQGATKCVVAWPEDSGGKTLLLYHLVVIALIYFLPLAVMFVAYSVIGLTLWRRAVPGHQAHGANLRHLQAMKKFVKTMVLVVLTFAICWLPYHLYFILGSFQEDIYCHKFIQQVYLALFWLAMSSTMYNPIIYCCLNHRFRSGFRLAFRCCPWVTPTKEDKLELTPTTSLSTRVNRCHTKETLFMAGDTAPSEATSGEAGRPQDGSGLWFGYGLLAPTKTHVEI

For the next test, the target named is T3, Androgen receptor (Rattus norvegicus, UniProt P15207).
T3 sequence (P15207 whole entry): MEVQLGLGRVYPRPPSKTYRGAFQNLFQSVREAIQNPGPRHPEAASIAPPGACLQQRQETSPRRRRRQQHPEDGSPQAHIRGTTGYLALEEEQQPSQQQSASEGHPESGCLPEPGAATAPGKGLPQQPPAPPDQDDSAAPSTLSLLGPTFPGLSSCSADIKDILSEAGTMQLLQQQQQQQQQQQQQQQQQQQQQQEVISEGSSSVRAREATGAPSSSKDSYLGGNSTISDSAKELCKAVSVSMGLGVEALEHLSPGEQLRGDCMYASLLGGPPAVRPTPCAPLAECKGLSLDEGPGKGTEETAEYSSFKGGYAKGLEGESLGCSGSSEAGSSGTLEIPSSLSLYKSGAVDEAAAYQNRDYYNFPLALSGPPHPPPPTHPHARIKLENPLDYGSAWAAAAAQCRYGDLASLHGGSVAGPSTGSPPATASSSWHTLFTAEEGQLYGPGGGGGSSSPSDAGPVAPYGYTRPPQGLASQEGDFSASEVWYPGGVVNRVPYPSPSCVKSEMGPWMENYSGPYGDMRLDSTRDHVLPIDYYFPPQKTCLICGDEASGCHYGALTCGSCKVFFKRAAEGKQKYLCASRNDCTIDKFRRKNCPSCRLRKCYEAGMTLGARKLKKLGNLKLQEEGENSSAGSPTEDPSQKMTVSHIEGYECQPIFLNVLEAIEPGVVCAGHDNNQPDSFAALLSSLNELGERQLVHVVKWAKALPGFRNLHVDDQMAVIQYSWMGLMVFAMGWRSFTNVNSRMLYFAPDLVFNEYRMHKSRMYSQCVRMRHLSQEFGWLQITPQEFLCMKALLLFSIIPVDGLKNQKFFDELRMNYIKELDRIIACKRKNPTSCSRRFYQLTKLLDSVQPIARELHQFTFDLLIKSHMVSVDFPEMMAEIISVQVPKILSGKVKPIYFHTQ
Format: functional.

The target of test [2] is T4, Oxysterols receptor LXR-beta (Homo sapiens, UniProt P55055).
T4 sequence (P55055 whole entry): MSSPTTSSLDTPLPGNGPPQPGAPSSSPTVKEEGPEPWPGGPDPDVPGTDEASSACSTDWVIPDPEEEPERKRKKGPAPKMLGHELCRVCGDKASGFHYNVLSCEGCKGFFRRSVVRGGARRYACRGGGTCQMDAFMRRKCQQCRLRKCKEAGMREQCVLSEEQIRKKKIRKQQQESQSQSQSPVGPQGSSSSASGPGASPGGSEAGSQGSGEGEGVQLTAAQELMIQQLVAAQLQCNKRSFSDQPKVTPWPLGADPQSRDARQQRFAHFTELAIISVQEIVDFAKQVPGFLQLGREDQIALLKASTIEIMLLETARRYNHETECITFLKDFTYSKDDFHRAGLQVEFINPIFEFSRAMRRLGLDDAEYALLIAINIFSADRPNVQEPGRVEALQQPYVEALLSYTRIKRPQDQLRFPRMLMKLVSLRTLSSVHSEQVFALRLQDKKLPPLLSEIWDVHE
Format: functional.

Test [3] concerns the target T5, Retinoic acid receptor beta (Homo sapiens, UniProt P10826).
T5 sequence (P10826 whole entry): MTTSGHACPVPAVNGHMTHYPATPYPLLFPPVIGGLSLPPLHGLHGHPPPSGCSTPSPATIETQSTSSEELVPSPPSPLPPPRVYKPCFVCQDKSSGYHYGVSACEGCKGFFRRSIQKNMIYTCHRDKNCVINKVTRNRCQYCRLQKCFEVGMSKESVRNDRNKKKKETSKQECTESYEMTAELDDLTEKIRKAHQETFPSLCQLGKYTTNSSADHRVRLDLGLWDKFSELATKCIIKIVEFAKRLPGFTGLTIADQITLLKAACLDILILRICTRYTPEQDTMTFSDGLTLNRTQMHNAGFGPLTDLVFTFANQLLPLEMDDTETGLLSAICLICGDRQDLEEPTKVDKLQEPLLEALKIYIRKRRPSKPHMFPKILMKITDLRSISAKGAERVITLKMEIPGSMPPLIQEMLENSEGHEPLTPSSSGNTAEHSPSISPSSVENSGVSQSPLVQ
Format: functional, cell-based.
Note: assay procedure not described here.

For orientation: AC50 means the midpoint of the concentration-response curve, whichever way the signal moves. A high value points to activity only at high concentration. `CCOC(=O)[C@H](CCc1ccccc1)N[C@@H](C)C(=O)N1Cc2ccccc2C[C@H]1C(=O)O`: the AC50 (in test [1]; on Substance-K receptor) was more than 10 µM each time.
Take `CCN(CC)CCn1c(=O)c(Cc2ccc(OC)cc2)nc2ccccc21` [CAROVERINE]: the AC50 on Androgen receptor was more than 30 µM.
Turning to `CC(C)/N=c1\cc2n(-c3ccc(Cl)cc3)c3ccccc3nc-2cc1Nc1ccc(Cl)cc1` [CLOFAZIMINE], the AC50 in test [2] and in test [3] was more than 30 µM each time.
